Holding throughout (assay): SP600125 SRB growth inhibition
What all share (type): cell-based

Assay [1] deals with MDA-MB-468. Conditions: Homo sapiens, 120 h, SRB assay 5 days after addition. As to the method: (§1) Compound SP600125 was purchased from Biomol International (PA, USA). 10 mM stock was prepared in 100% DMSO. Cells were seeded at various numbers, ranging from 1500 to 4000 per 80 μl in each well according to cell growth rate, into 96 well plates, 24 hours before compound overlay. The 10 mM SP600125 compounds stock in 100% DMSO was diluted with Opti-MEM I Reduced-Serum Medium (Invitrogen, Burlington, ON, Canada) to concentrations range from 50 nM to 250 μM. 20 μl from each concentration was overlay to cells to make the final concentrations range from 10 nM to 50 μM. The cells were cultured for 5 days before Sulforhodamine B assay. SRB assay is performed to assess cell survival. SRB is a water-soluble dye that binds to the basic amino acids of the cellular proteins. Thus, colorimetric measurement of the bound dye provides an estimate of the total protein mass that is related to the cell number. the cells are fixed in situ by gently aspirating off the culture media and adding 50 μl ice cold 10% Tri-chloroacetic Acid (TCA) per well and incubate at 4° C. for 30-60 min. The plates are washed with tap water five times and allowed to air dry for 5 min. Add 50 μl 0.4% (w/v) Sulforhodamine B solution in 1% (v/v) acetic acid per well and incubate for 30 min at RT for staining. Following staining, plates are washed four times with 1% acetic acid to remove any unbound dye and then allowed to air dry for 5 min. Stain is solubilized with 100 ul of 10 mM Tris pH 10.5 per well. Absorbance is read at 570 nm. The cell survival percentage in each compound concentration was calculated over the cell DMSO control, which was growing in the presence of 0.1% DMSO (0.5% in the case of 50 μM compounds). The GI50 were calculated using GraphPad PRISM software.
(§2) Cell viability was assessed using the SRB assay described herein, which was performed 5 days after the addition of SP600125 to the culture media. Prism software was used to calculate GI50 (concentration of the compound required to achieve 50% growth inhibition) (Table 3).
In general terms: In SRB staining, fixed cells bind dye roughly in proportion to their protein.

The subject of assay [2] is MDA-MB-435. The following applies: Homo sapiens, 120 h, SRB assay 5 days after addition. On the procedure: as §1, §2
The test system of assay [3] is T47D. Conditions: Homo sapiens, 120 h, SRB assay 5 days after addition. On the procedure:
as §1, §2

Assay [4] has as its system MDA-MB-231. Conditions: Homo sapiens, 120 h, SRB assay 5 days after addition. On the procedure: as §1, §2
In assay [5] the test system is MDA-MB-330. Conditions: Homo sapiens, 120 h, SRB assay 5 days after addition. As to the method:
as §1, §2

Assay [6] relates to 184A. The following applies: Homo sapiens, 120 h, SRB assay 5 days after addition. On the procedure:
as §1, §2

Assay [7] has as its system MDA-MB-453. The following applies: Homo sapiens, 120 h, SRB assay 5 days after addition. As to the method: as §1, §2
Assay [8] deals with Hs578T. Conditions: Homo sapiens, Hs-578T, 120 h, SRB assay 5 days after addition. On the procedure: as §1, §2
Assay [9] concerns MCF-7. The following applies: Homo sapiens, MCF7, 120 h, SRB assay 5 days after addition. As to the method: as §1, §2
For assay [10], the system named is HCC1419. The following applies: Homo sapiens, 120 h, SRB assay 5 days after addition. On the procedure:
as §1, §2

For assay [11], the system named is SKBr-3. The following applies: Homo sapiens, SK-BR-3, 120 h, SRB assay 5 days after addition. As to the method: as §1, §2
Assay [12] relates to BT474. Conditions: Homo sapiens, BT-474, 120 h, SRB assay 5 days after addition. As to the method: as §1, §2

Take `Oc1c2ccccc2c2c3c(cccc13)N=N2` [SP600125, anthra(1,9-cd)pyrazol-6(2H)-one 1,9-pyrazoloanthrone]: the 50% growth inhibitory concentration (GI50) is 483 nM in assay [1]; 822 nM in assay [2]; 2520 nM in [3]; 894 nM in assay [4]; 7020 nM in assay [5]; 1590 nM in assay [6]. Also, the GI50 in [7] was determined as 2300 nM; in [8], 1840 nM; in assay [9] it was 672 nM; in assay [10], 10000 nM; in assay [11], 812 nM; in [12] it was 8580 nM.

What is called GI50 is the concentration that inhibits growth by half. Read a high GI50 as lower sensitivity of the cells.
